Article PMC3731163 (MedChemComm, 2013)
Where two headings read alike, the source gives them in different places.

Assays:
Mtb Dxr [1] = biological target: T1, Mtb Dxr (Mycobacterium tuberculosis, UniProt P9WNS1); details: see also Supplementary Figure 1; cited from earlier work
H37Rv Mtb [2] = details: cited from earlier work
H37Rv Mtb [3] = experiment: Whole cell antitubercular activity; assay type: cell-based, Mycobacterium tuberculosis
Mtb Dxr [4] = biological target: T1, Mtb Dxr; experiment: Classical competition experiments; assay type: biochemical; details: double reciprocal plots

T1 sequence (P9WNS1 whole entry): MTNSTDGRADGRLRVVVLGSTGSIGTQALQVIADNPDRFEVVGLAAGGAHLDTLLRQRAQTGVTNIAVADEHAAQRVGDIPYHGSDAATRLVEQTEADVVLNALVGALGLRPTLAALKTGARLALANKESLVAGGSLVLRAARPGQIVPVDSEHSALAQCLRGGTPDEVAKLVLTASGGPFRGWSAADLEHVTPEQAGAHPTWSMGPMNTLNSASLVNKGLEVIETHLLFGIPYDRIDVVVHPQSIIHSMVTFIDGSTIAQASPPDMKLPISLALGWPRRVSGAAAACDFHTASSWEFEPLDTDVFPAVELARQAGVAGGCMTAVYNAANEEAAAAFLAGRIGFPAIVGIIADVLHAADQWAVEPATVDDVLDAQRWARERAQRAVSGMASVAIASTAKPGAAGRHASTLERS

Compound | mode of inhibition with respect to DXP (Mtb Dxr [1]) | inhibition of Mtb growth (in words) (H37Rv Mtb [3]) | further results
O=CN(O)CCCP(=O)(O)O [Compound 1, Fosmidomycin] | competitive | do not inhibit Mtb | activity against Mtb (in words) (H37Rv Mtb [2]): inactive
CC(=O)N(O)CCCP(=O)([O-])O.[Na+] [Compound 2, FR900098] | competitive | do not inhibit Mtb | mode of inhibition relative to NADPH (Mtb Dxr [1]): uncompetitive
CCOP(=O)(CCCN(O)C=O)OCC [Diethyl-1] |  | display measurable antitubercular activity | 
O=C(CCCc1ccccc1)N(O)CCCP(=O)([O-])O.[Na+] [Compound 8] |  | do not inhibit Mtb | mode of inhibition with respect to DXP (Mtb Dxr [4]): competitive; mode of inhibition with respect to NADPH (Mtb Dxr [4]): noncompetitive
CCOP(=O)(CCCN(O)C(=O)CCCc1ccccc1)OCC [18b] |  | display measurable antitubercular activity | inhibition of Mtb growth (in words) (H37Rv Mtb [3]; listed as diethyl ester of 8): inhibits Mtb growth
